The source of these data is publication PMC8708382, “Heterocyclic Cathinones as Inhibitors of Kynurenine Aminotransferase II—Design, Synthesis, and Evaluation” (Pharmaceuticals, 2021).

The test system of one series is KAT-II. To be noted: published KAT-II inhibitors, Figure 2; cited from earlier work.
The target of another series is T1, hKAT-II (Homo sapiens, UniProt Q8N5Z0).
T1 construct: hexahistidine tag (N); made in house; host or cells: E. coli BL21(DE3)-RIL
Nature of the series: Coupled fluorescence in vitro inhibition assay of hKAT-II. It is filed as biochemical. The conditions noted are these: for Inhibitory Activity [%I ± SEM] c = 1 µM: 30 min pre-incubation with enzyme, mean ± SEM. On the procedure: The inhibitory activity of amino ketones 11 and 12 was evaluated using a fluorimetric in vitro assay. The activity was determined as the percentage of inhibition (%I) at a concentration of 1 µmol/L and also as IC50 values (Table 1). The observed inhibitory activity confirmed the validity of the computational model and was suitable to conduct a synthesis-directed SAR study around the predicted heterocyclic α-amino ketone structure.
The nucleotide sequence encoding hKAT-II gene was constructed by Invitrogen, Thermo Fisher Scientific. The hKAT-II gene, optimized for heterologous expression in E. coli, was cloned into a pET15b vector using NdeI-XhoI. The hKAT-II protein, carrying an N-terminal hexahistidine tag, was produced in E.coli BL21(DE3)-RIL cells for 4 h at 37 °C. The bacterial cells were then harvested and disintegrated using One-Shot. […] (25.000× g, 30 min) centrifugation cleared cell lysate containing hKAT-II was loaded on the top of a HisTrap Fast Flow column (Cytiva) equilibrated in loading buffer (40 mM Tris, pH 8; 1000 mM NaCl, 40 µM PLP, 5 mM MgCl2, 20 mM imidazole). Following elution of the bound proteins by the loading buffer containing 600 mM imidazole, purified hKAT-II was dialyzed into a storage buffer (20 mM Hepes pH 7.5; 50 mM NaCl, 70 µM PLP, 10% glycerol), concentrated to 1.0–1.5 mg/mL, aliquoted, and stored at −80 °C.
hKAT-II activity was measured using a fluorescence assay utilizing L-α-aminoadipic acid (AAD) and α-ketoglutarate as the substrates as previously described. The assay medium (100 µL) consisted of 0.75 µM of hKAT-II, 0.3 mM of AAD, 50 µM α-ketoglutarate, 3 mM NAD^+, 88 µg/mL of glutamic dehydrogenase, and 5 µM pyridoxal phosphate (PLP) in a 0.1 M phosphate buffer pH 7.5. The activity of the enzyme was assessed on a Spark multiple mode reader (Tecan Group Ltd., Männedorf, Switzerland) with an excitation wavelength of 340 nm and emission wavelength of 390 nm at 37 °C. The plate was shaken for 20 s before reading. The kinetic interval was set at 30 s between each reading, and data were collected for 30 min. The activity of the enzyme was assayed in pentaplicate in each measurement (n = 3). Kinetic data were then collected over a period of 30 min, and the linear part of the initial velocity was used to calculate the enzyme activity expressed as the slope of the linearized curve via the linear regression function (Excel, Microsoft, USA).
The inhibitory activity of the tested compounds was determined via 30 min pre-incubation with the enzyme at various concentrations of the inhibitor at room temperature in a 0.1 M phosphate buffer pH 7.5 with 5 µM PLP. The enzyme reaction was initiated by the addition of a substrate and cofactors. The final mixture contained 20 nM of hKAT-II, 0.3 mM of AAD, 50 µM α-ketoglutarate, 3 mM NAD^+, and 88 µg/mL of glutamic dehydrogenase. Kinetic data were collected over a period of 30 min, and the slope of the linearized curve was calculated as above. The inhibitory activity in %I at a given concentration was calculated for novel compounds using the following equation:(1) Inhibition [%I]=(V0− Vi/V0)×100, where V0 and Vi are the activity of the enzyme in the absence and presence of the inhibitor, respectively. All the data were obtained in pentaplicate for each measurement (n = 3). Alternatively, the IC50 values for selected novel compounds were assessed. GraphPad Prism 8 software (San Diego, USA) was used for the IC50 value calculation using non-linear regression (four parameters). […]

Where two headings read alike, the source gives them in different places. Some results are limits rather than exact numbers.

T1 sequence (Q8N5Z0 30-425): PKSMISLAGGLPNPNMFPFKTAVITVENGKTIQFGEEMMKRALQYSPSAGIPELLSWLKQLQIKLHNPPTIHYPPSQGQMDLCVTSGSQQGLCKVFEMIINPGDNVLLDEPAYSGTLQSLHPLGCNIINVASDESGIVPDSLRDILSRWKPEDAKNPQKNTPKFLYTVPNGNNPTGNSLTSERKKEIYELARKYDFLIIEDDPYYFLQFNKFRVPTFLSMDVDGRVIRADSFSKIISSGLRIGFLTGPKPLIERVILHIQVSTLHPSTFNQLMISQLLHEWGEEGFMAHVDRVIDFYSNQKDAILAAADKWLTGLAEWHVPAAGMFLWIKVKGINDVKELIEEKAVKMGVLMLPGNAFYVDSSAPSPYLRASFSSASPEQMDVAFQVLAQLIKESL

What is called IC50 is the midpoint of a concentration-inhibition curve. Take `CCS(=O)(=O)c1ccc(C(=O)C[C@H](N)C(=O)O)cc1` [Compound 1, (S)-ESBA]: the concentration for half-maximal inhibition (IC50) in the series with KAT-II is 71000 nM.
`C[C@H]1COc2c(N3CCN(N)CC3)c(F)cc3c(=O)c(C(=O)O)cn1c23` [Compound 2, BFF-122]: the IC50 with KAT-II was 1000 nM.
Turning to `N[C@H]1Cc2cn(-c3ccccc3)nc2N(O)C1=O` [Compound 4], the IC50 in the series on KAT-II was 25 nM.
With `O=C1NC(=O)/C(=C/c2cccc(-c3ccc4c5c3CCC(=O)N5CC4)c2)S1` [Compound 5, BFF-816], the IC50 with KAT-II was 13400 nM.
For `CC1(C)[C@@H](O)CC[C@]2(C)[C@H]3C(=O)C=C4[C@@H]5C[C@@](C)(C(=O)O)CC[C@]5(C)CC[C@@]4(C)[C@]3(C)CC[C@@H]12` [Compound 6, glycyrrhetinic acid], the IC50 in the series on KAT-II is 7000 nM.
For `NS(=O)(=O)c1ccc(N2C(=O)c3cc(Cl)c(Cl)cc3C2=O)cc1` [Compound 7], in the series on KAT-II, the 50% inhibitory concentration (IC50) was 73800 nM.
In the case of `Cn1c(CN2CCOCC2)nc2sc([C@H]3CCCN3C(=O)OCc3ccccc3)nc2c1=O` [Compound 8], the IC50 with KAT-II was 610 nM.
For `CC(C)[C@@H](Cc1nnc(NS(=O)(=O)c2cc(F)cc(F)c2)s1)c1cccc(F)c1` [Compound 9], the IC50 with KAT-II was 880 nM.
For the compound `Cc1ccc(NC(=O)N2CCCC3(CCC(=O)N(CCC(C)C)C3)C2)cc1Cl` (stereo not drawn) [Compound 10], the IC50 in the series with KAT-II was 810 nM.
A word on the melting point: it is the temperature of the solid-liquid transition. In the case of `C[C@H](N)C(=O)c1cn(-c2ccccc2Cl)nn1.Cl` [Compound 26t], the melting point is 138 to 169 °C (dec.). Also, the “Inhibitory Activity [%I ± SEM] c = 1 µM” value on hKAT-II (20 nM hKAT-II) is listed as 35.52 ± 3.63 %I.
Taken in the same sequence, the figures for `C[C@H](N)C(=O)c1cn(-c2ccc(Cl)c(Cl)c2)nn1` [Compound 26u] were > 163 °C (dec.) and 19.33 ± 1.06 %I.
Taken in the same sequence, the figures for `C[C@H](N)C(=O)c1cn(Cc2ccccc2)nn1.Cl` [Compound 28a] were > 182 °C (dec.) and 14.54 ± 3.19 %I.
On to `C[C@H](N)C(=O)c1cn(CCc2ccccc2)nn1.Cl` [Compound 28b], for which the melting point was > 172 °C (dec.). In addition, the “Inhibitory Activity [%I ± SEM] c = 1 µM” value on hKAT-II (20 nM hKAT-II) was found to be 11.84 ± 5.76 %I.
As to `C[C@H](N)C(=O)c1cn(-c2ccc(F)cc2Cl)nn1` [Compound 32a], the melting point was > 158 °C (dec.). Also, the “Inhibitory Activity [%I ± SEM] c = 1 µM” value on hKAT-II (20 nM hKAT-II) is recorded as 25.30 ± 1.10 %I.
`CC[C@H](N)C(=O)c1cn(-c2ccc(F)cc2Cl)nn1` [Compound 32b]: the melting point is > 196 °C (dec.). Moreover, the “Inhibitory Activity [%I ± SEM] c = 1 µM” value at hKAT-II (20 nM hKAT-II) is given as 21.25 ± 0.67 %I.
With `CC[C@H](N)C(=O)c1cn(-c2ccc(F)cc2)nn1.Cl` [Compound 32c], the melting point was > 182 °C (dec.). Besides, the “Inhibitory Activity [%I ± SEM] c = 1 µM” value on hKAT-II (20 nM hKAT-II) is 35.94 ± 2.87 %I.
As for `C[C@H](N)C(=O)c1nc2ccccc2s1.Cl` [Compound 34a], the melting point is > 156 °C (dec.). Further, on hKAT-II (20 nM hKAT-II), the “Inhibitory Activity [%I ± SEM] c = 1 µM” value was determined as 52.49 ± 1.31 %I.
Consider `C[C@H](N)C(=O)c1nc2ccc(F)cc2s1` [Compound 34b], for which the melting point was > 152 °C (dec.). At hKAT-II, this compound gave a 50% inhibitory concentration (IC50) of 987 ± 88 nM. Besides, the “Inhibitory Activity [%I ± SEM] c = 1 µM” value at hKAT-II (20 nM hKAT-II) is reported as 56.60 ± 3.68 %I.
With `CC[C@H](N)C(=O)c1nc2ccccc2s1.Cl` [Compound 34c], the melting point is > 140 °C (dec.). Moreover, at hKAT-II (20 nM hKAT-II), the “Inhibitory Activity [%I ± SEM] c = 1 µM” value came out at 36.16 ± 3.81 %I.
Taken in the same sequence, the figures for `CC[C@H](N)C(=O)c1nc2ccc(F)cc2s1.Cl` [Compound 34d] were > 145 °C (dec.) and 9.73 ± 1.41 %I.
For the compound `CC[C@H](N)C(=O)c1ncc(-c2ccc(F)cc2)s1` [Compound 49b], the melting point was > 150 °C (dec.). Besides, the “Inhibitory Activity [%I ± SEM] c = 1 µM” value at hKAT-II (20 nM hKAT-II) is listed as 57.07 ± 0.31 %I.
For `C[C@H](N)C(=O)c1ncc(-c2ccc(F)cc2Cl)s1.Cl` [Compound 49c], the melting point is 127 to 134 °C (dec.). Further, the “Inhibitory Activity [%I ± SEM] c = 1 µM” value at hKAT-II (20 nM hKAT-II) amounted to 47.65 ± 1.71 %I.
On to `CC[C@H](N)C(=O)c1ncc(-c2ccc(F)cc2Cl)s1.Cl` [Compound 49d], for which the melting point was > 134 °C (dec.). Moreover, on hKAT-II (30 min pre-incubation, 20 nM hKAT-II, non-linear regression (four parameters), read-out: IC50 ± SEM), the half-maximal inhibitory concentration (IC50) is 304 ± 39 nM. The “Inhibitory Activity [%I ± SEM] c = 1 µM” value at hKAT-II (20 nM hKAT-II) stood at 59.71 ± 0.97 %I.
